Measured values published in patent EP2364976B1, “S1P receptor modulating compounds and use thereof” (EPIX Pharmaceuticals, Inc., priority 2007, dated 2007).
pEC50: −log10 of the molar value. Several values for one entry are separate records, joined by “and”; a condition that tells them apart may be missing. Equal values may be shown once. Where a name gives a salt, the structure may show the parent alone.

Target: T1, hS1P1 (Homo sapiens, UniProt P21453)
T1 construct: expressed in transfected cells
Test: hS1P1 EC50 (S1P receptor Ca2+ flux protocol, FLIPR, CHO K1 Gqi5 cells)
Type: cell-based
Details: several values per compound = repeat determinations as printed
Method: S1P receptor activity may also be measured by an SIP receptor (e.g., hS1P1, hS1P3, rS1P1, rS1P3 and parental cell) Ca^2+ Flux protocol as described below: • 1. Material • a. FLIPR buffer: 1x HBSS; 10mM HEPES • b. Cell growth media: • i. human and rat S1P1 and S1P3: F12-Ham's media; 10% FBS (qualified); 1x Pen/Strep/Glu; 300ug/mL Hygromycin; 400ug/mL Geneticin ii. Parental cell: human and rat S1P and S1P3: F12-Ham's media; 10% FBS (qualified); 1x Pen/Strep/Glu; 300ug/mL Hygromycin; • c. Cell seeding media; F12-Ham's media; 10% FBS (Charcoal/dextran stripped); 1x Pen/Strep/Glu; • d. Cell dissociation buffer: Versene from Invitrogen • e. Agonist (SIP) dissolving buffer: 0.4% (w/v) fatty-acid free BSA (Sigma # A8806) in FLIPR buffer • f. FLIPR dye: BD PBX Calcium assay kit; Cat#641077 is composed of Calcium indicator (Cat#850000) and 100x PBX signal enhancer (cat#850001). The 100x PBX signal enhancer is diluted into FLIPR buffer 1:100 and the calcium indicator is then added at 1:1000 ratio. • g. Cell plates (96-well): Greiner Cat#655090 • h. Compound plates (96-well): Costar #3365 • i. S1P stock solution preparation: S1P is purchased from CalBioChem (Catalog # 970471; 1mg vial; custom prep using methanol, & nitrogen gas drying inside glass vial; Storage @ -20°C). Dissolve 1 vial of SIP into 26.4ml of agonist dissolving buffer in a 50ml centrifuge tube; Remove label from bottle of SIP, open and drop entire bottle into tube. Sonicate at 37° for ½ hour. Clear solution of 100µM will result. This stock solution is aliquoted and stored at -80C • 2. Cell line maintenance • a. V5 tags were added at the N-terminus of hS1P1, hS1P3, rS1P1 and rS1P3. All four genes were transfected into CHO K1 cells which stably express Gqi5. • b. hS1P1 and hS1P3 were established as stable clones and rS1P1 and rS1P3 were sorted by anti V5 tag and established as stable pools after sorting. • c. Parental cell line CHO/K1 Gqi5 is used as the control. • d. All the cells are maintained in cell growth media and splitted twice a week using Versene. • e. All the cell lines are used under passage 30. • 3. Assay protocol • a. Cell seeding: Cells are lifted from the flask by Versene and seeded in cell plates at 50K/well in cell seeding media. Cells are grown overnight at 37 degree. • b. Cell loading: Cell seeding media is discarded. Cells are loaded with 50ul of FLIPR dye at RT for 90 min. Signal is stable for up to 5 h after dye loading. • c. Agonist (S1P) preparation: Frozen stock of S1P is thawed out and sonicated at 37c for 30 minutes every time before use. The stock is then diluted into FLIPR buffer at proper concentration. • d. Compound preparation: Compounds are dissolved in DMSO. A 3x, 10 point dilution of the compounds are carried out in DMSO. Then the compounds are diluted into assay buffer133x so that the DMSO concentration is 0.75%. • e. Activity measurement: The fluorescence signal change of the cells upon compound addition is monitored in FLIPRtetra. 25ul of compound is transferred into the cell plates (50ul of FLIPR dye; DMSO concentration: 0.25%). Signal is recorded for 90sec after compound addition. Then 50ul of 500nM SIP is added in the cell plate, and signal is recorded for 90 seconds upon addition. • 4. Data analysis • a. Peak value is calculated for each compound/S1P addition • b. The peak value of S1P at 200nM is used as high control (100%), and the peak value of buffer only is used as low control (0%). • c. Data is normalized against high and low controls using the following equation: POC_S = 100*(RAW-LO)/(HI-LO) [formula] • d. Peak value is plotted against the concentration of compound. • e. Curve is fitted using the 4 parameter fit: Y = (A+(B/(1+(((x/C))^(∧)D)))) [formula] where: Y is POC_S (or POC) • X is compound concentration • A is the minimum (EC50min or IC50min) • B is the maxmum (EC50max or IC50max) • C is the inflection point (EC50IP or IC50IP) • D is the hill slope (EC50 slope or IC50 slope).

T1 sequence (P21453 whole entry): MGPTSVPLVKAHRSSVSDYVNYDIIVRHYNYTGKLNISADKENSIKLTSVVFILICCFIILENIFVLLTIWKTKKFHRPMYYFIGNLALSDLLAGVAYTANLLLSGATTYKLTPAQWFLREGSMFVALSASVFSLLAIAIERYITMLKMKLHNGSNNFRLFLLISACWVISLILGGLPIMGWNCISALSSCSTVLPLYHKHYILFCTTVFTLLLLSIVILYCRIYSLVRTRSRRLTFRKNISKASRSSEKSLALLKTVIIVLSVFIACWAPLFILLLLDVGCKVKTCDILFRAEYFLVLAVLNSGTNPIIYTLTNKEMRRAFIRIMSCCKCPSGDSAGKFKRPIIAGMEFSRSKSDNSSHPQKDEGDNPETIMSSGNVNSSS

| pEC50 | Structure (SMILES) |
| --- | --- |
| 5.32 | O=C(O)C1CN(Cc2cccc(-c3cc4cc(Cc5ccccc5)ccc4o3)c2)C1 [Reference Compound 96, 1-(3-(5-Benzylbenzofuran-2-yl)benzyl)azetidine-3-carboxylic acid] |
| 6.15 | O=C(O)C1CN(Cc2ccc(-c3cc4ccccc4o3)c(F)c2)C1 [Reference Compound 68, 1-(4-(benzofuran-2-yl)-3-fluoro-benzyl)azetidine-3-carboxylic acid] |
| 6.40 and 6.34 and 6.38 and 6.97 | O=C(O)C1CN(Cc2ccc(-c3cc4cc(Cc5ccccc5)ccc4o3)cc2)C1 [Reference Compound 4, 1-((4-(5-Benzylbenzofuran-2-yl)phenyl)methyl)azetidine-3-carboxylic acid] |
| 7.05 | O=C(O)C1CN(Cc2cc(F)c(-c3cc4cc(Cc5ccccc5)ccc4o3)c(F)c2)C1 [Reference Compound 48, 1-((4-(5-Benzylbenzofuran-2-yl)-3,5-difluorophenyl)methyl)azetidine-3-carboxylic acid] |
| 5.80 | O=C(O)C1CCN(Cc2ccc(-c3cc4cc(C5CCCCC5)ccc4o3)cc2)CC1 [Reference Compound 7, 1-(4-(5-cyclohexylbenzofuran-2-yl)benzyl)piperidine-4-carboxylic acid] |
| 5.74 | O=C(O)C1CN(Cc2ccc(-c3cc4cc(-c5cccs5)ccc4o3)cc2)C1 [Reference Compound 28, 1-((4-(5-(thiophen-2-yl)benzofuran-2-yl)phenyl)methyl)azetidine-3-carboxylic acid] |
| 7.92 | O=C(O)C1CN(Cc2ccc(-c3nc4cc(Oc5ccccc5)ccc4o3)c(F)c2)C1 [Reference Compound 116, 1-((3-Fluoro-4-(5-phenoxybenzo[d]oxazol-2-yl)phenyl)methyl)azetidine-3-carboxylic acid] |
| 5.51 | CCCCc1ccc2oc(-c3ccc(CN4CCC(C(=O)O)CC4)cc3)cc2c1 [Reference Compound 8, 1-((4-(5-Butylbenzofuran-2yl)phenyl)methyl)pineridine-4-carbocylic acid] |
| 7.96 | O=C(O)C1CN(Cc2ccc(-c3cc4cc(Cc5ccccc5)ccc4s3)c(F)c2)C1 [Reference Compound 81, 1-(4-(5-Benzylbenzo[b]thiophen-2-yl)-3-fluorobenzyl)azetidine-3-carboxylic acid] |
| 7.27 | O=C(O)C1CN(Cc2ccc(-c3cn4ccc(Cc5ccccc5)cc4n3)c(F)c2)C1 [Inventive Compound 119, 1-(4-(7-Benzyl-1H-imidazo[1,2-a]pyridin-2-yl)-3-fluorobenzyl)azetidine-3-carboxylic acid, trifluoroacetic acid salt] |
| 7.10 | O=C(c1ccccc1)c1ccc2oc(-c3ccc(CN4CC(C(=O)O)C4)cc3F)cc2c1 [Reference Compound 102, 1-((4-(5-Benzoylbenzofuran-2-yl)-3-fluorophenyl)methyl)azetidine-3-carboxylic acid] |
| 7.57 | O=C(O)C1CN(Cc2ccc(-c3cc4cc(Cc5ccccc5)cnc4o3)c(F)c2)C1 [Inventive Compound 98, 1-((3-Fluoro-4-(5-(phenylmethyl)furo[2,3-b]pyridin-2-yl)phenyl)methyl)-3-azetidinecarboxylic acid] |
| 6.50 | O=C(O)C1CCN(Cc2ccc(-c3cc4cc(Cc5ccccc5)ccc4o3)c(F)c2)C1 (racemic) [Reference Compound 41] |
| 6.68 | O=C(O)C1CN(Cc2ccc(-c3cc4cc(C5CCCC5)ccc4o3)cc2)C1 [Reference Compound 30, 1-(4-(5-cyclopentylbenzofuran-2-yl)benzyl)azetidine-3-carboxylic acid] |
| 6.40 | O=C(O)C1CN(Cc2ccc(-c3cc4cc(CC5CCCCC5)ccc4o3)c(F)c2)C1 [Reference Compound 74, 1-(4-(5-(Cyclohexylmethyl)benzofuran-2-yl)-3-fluorobenzyl)azetidine-3-carboxylic acid] |
| 6.98 | O=C(O)C1(O)CN(Cc2ccc(-c3cc4cc(Cc5ccccc5)ccc4o3)c(F)c2)C1 [Reference Compound 88, 1-((4-(5-Benzylbenzofuran-2-yl)-3-fluorophenyl)methyl)-3-hydroxyazetidine-3-carboxylic acid] |
| 5.77 | CC(C)Cc1ccc2oc(-c3ccc(CN4CCC(C(=O)O)CC4)cc3)cc2c1 [Reference Compound 13, 1-(4-(5-isobutylbenzofuran-2yl)benzyl)piperidine-4-carboxylic acid] |
| 6.50 | CC(c1ccc(-c2cc3cc(Cc4ccccc4)ccc3o2)c(F)c1)N1CC(C(=O)O)C1 (centres unmarked) [Reference Compound 123, 1-(1-(4-(5-benzylbenzofuran-2-yl)-3-fluorophenyl)ethyl)azetidine-3-carboxylic acid] |
| 5.92 | O=C(O)C1CN(Cc2ccc(-c3cc4cc(-c5ccccc5)ccc4o3)cc2)C1 [Reference Compound 1, 1-(4-(5-Phenylbenzofuran-2-yl)benzyl)azetidine-3-carboxylic acid] |
| 5.48 | O=C(O)[C@H]1CCCN(Cc2ccc(-c3cc4cc(Cc5ccccc5)ccc4o3)c(F)c2)C1 [Reference Compound 63, (3S)-1-((4-(5-Benzylbenzofuran-2-yl)-3-fluorophenyl)methyl)piperidine-3-carboxylic acid] |
| 6.25 | O=C(O)C1CN(Cc2ccc(-c3cc4cc(C5CCCC5)ccc4o3)c(Cl)c2)C1 [Reference Compound 51, 1-((3-chloro-4-(5-cyclopentylbenzofuran-2-yl)phenyl)methyl)azetidine-3-carboxylic acid] |
| 4.77 | CCCCOc1ccc2oc(-c3ccc(CN4CCC(C(=O)O)CC4)cc3)cc2c1 [Reference Compound 16] |
| 6.01 and 6.40 and 6.36 and 6.38 | O=C(O)C1CN(Cc2ccc(-c3cc4cc(C5CCCCC5)ccc4o3)cc2)C1 [Reference Compound 6, 1-(4-(5-cyclohexylbenzofuran-2-yl)benzyl)azetidine-3-carboxylic acid] |
| 7.72 | O=C(O)C1CN(Cc2ccc(-c3nc4cc(Cc5ccccc5)ccc4o3)c(F)c2)C1 [Reference Compound 112, 1-((4-(5-Benzylbenzo[d]oxazol-2-yl)-3-fluorophenyl)methyl)azetidine-3-carboxylic acid] |
| 7.51 | O=C(O)C1CN(Cc2ccc(-c3cc4cc(Cc5ccccn5)ccc4o3)c(F)c2)C1 [Reference Compound 93, 1-((3-Fluoro-4-(5-(pyridin-2-ylmethyl)benzofuran-2-yl)phenyl)methyl)azetidine-3-carboxylic acid] |

| Structure (SMILES) | pEC50 |
| --- | --- |
| O=C(O)C1CN(Cc2ccc(-c3nc4cc(Cc5ccccc5)ccc4s3)c(F)c2)C1 [Inventive Compound 114, 1-((4-(5-Benzylbenzo[d]thiazol-2-yl)-3-fluorophenyl)methyl)azetidine-3-carboxylic acid] | 7.54 |
| O=C(O)C1CN(Cc2ccc(-c3cc4cc(C5CCOCC5)ccc4o3)c(F)c2)C1 [Reference Compound 61] | 6.68 |
| O=C(O)C1CN(Cc2ccc(-c3cc4cc(C5CCCCC5)ccc4o3)c(F)c2)C1 [Reference Compound 27] | 6.80 and 6.44 |
| O=C(O)C1CN(Cc2ccc(-c3cc4cc(COC5CCC5)ccc4o3)c(F)c2)C1 [Reference Compound 67, 1-(4-(5-(Cyclobutoxymethyl)benzofuran-2-yl)-3-fluoro-benzyl)azetidine-3-carboxylic acid] | 7.60 |
